From EP2138586A1, “Process for the regioselective preparation of disaccharides or oligosaccharides” (Cognis IP Management GmbH, priority 2008, dated 2009) come the findings set out here.

This data set in a line: log P of the solvents used in the transglycosylation (Table 1). It counts as physicochemical. Particulars: property of the dialkyl amide solvent; method not described.

Usually logP stands for the decadic logarithm of the partition coefficient of the neutral form, usually between octanol and water. Higher therefore signals higher lipophilicity. `CC(O)C(=O)N(C)C` (centres unmarked) [LDMA, lactic acid dimethyl amide]: the logP was -0.69. In turn, `CCCCCCCC(=O)N(C)C` [CDMA, caprylic dimethyl amide] yielded a logP of 1.42.
